Experiments:
[1] = molecular target: T1, adenosine deaminase (ADA) (Homo sapiens, UniProt P00813); assay: Cell viability with adenosine derivatives in presence or absence of ADA, normoxic conditions (Example 2); format: cell-based; conditions: presence of ADA
T1 construct: purchased Sigma
T1 sequence (P00813 1-363): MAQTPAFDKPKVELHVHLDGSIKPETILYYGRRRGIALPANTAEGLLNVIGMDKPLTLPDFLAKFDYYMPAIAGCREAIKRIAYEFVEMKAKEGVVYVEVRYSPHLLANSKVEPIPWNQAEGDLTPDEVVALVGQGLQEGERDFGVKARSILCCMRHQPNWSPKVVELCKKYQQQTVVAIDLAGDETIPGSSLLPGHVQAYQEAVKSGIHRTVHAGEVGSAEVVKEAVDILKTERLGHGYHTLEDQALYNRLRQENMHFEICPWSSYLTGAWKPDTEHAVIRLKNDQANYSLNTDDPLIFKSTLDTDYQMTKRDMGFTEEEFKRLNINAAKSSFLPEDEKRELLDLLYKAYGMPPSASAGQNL
Experimental: Three known ADA inhibitors were examined to evaluate the efficacies of adenosine derivatives: cladribine, pentostatin, and fludarabine phosphate. They have similar structures and molecular weights compared to adenosine, but different functional groups in the structures. Metabolic rate of cells were indirectly analyzed by cell viability in the presence or absence of adenosine derivatives and ADA in various doses. Cell viability with the drugs was evaluated under normoxic conditions.
Adenosine (Sigma-Aldrich), cladribine (Sigma, 2-Chloro-2′-deoxyadenosine), pentostatin (Tocris biosciences), and fludarabine phosphate (LGM Pharma) were used throughout this study.

C2C12 cells = assay: MTS metabolic activity per cell, C2C12 under 0.1% hypoxia; format: cell-based, murine; conditions: 5 mM adenosine
Experimental: Hypoxic condition was maintained with a gas mixture containing 0.1% O2, 5% CO2 and 94.9% N2 at 37° C. and full humidity in an X-Vivo System (Biospherix). […] The hypoxic groups were then placed to the hypoxic chamber and incubated up to day 11, whereas the normoxic group continued to be incubated in the regular incubator. No medium change was made on both normoxic and hypoxic groups up to day 11. After transfer to normoxic conditions, cells were cultured in the regular incubator with an exchange of no adenosine-containing, fresh medium every third day.
Mitochondrial metabolic activity of viable cells was assessed using a 3-(4,5-dimethylthiazol-2-yl)-5-(3-carboxymethoxyphenyl)-2-(4-sulfophenyl)-2H-tetrazolium (MTS) assay (Promega). Cells were rinsed with PBS three times followed by the addition of 120 μL of MTS reagent to each well. After an hour of incubation, optical density (OD) of a brown formazan product by dehydrogenase enzymes in metabolically active cells was measured with a microplate reader at 490 nm. The mean OD value obtained from media blanks was standardized as […]. For some analyses, metabolic activity measured at each time point was normalized by the cell number obtained from PicoGreen assay as previously described. The total metabolic activity represented by the area under the curve over time was computed using Origin Pro v. 8 (Origin Lab Corporation).

SMILES: Nc1ncnc2c1ncn2[C@@H]1O[C@H](CO)[C@@H](O)[C@H]1O [adenosine]
- conversion by ADA / stability towards adenosine degrading enzymes [1]: lost its activity in presence of ADA
- metabolic activity in early hypoxic phase (C2C12 cells; 0.1% hypoxia, MTS per cell): suppressed initially up to day 5
- metabolic activity maintained, of the initial metabolic activity (C2C12 cells; 0.1% hypoxia, day 11, MTS per cell): approximately 68%
- metabolic activity after transfer to normoxic conditions (C2C12 cells; after 11 days hypoxia): restored to a level equivalent to that in normoxic cells
